Data reported in patent publication US20110065734A1, “NOVEL BIFUNCTIONAL COMPOUNDS WHICH INHIBIT PROTEIN KINASES AND HISTONE DEACETYLASES” (4SC AG, priority 2007, published 2011).
Counter-ions that a name gives are not always drawn. Like-named read-outs stand apart in the source and are kept apart here. Each block holds one compound with its values, some of them ahead of it.

Tests used:
[1] = molecular target: T1, recombinant HDAC1 isolated from HEK293 cells with heterologous HDAC1 expression (Homo sapiens, UniProt Q13547); assay: Fluorimetric rHDAC1 activity assay; assay type: biochemical; details: only a range of IC50 over the compounds given; read-out: rHDAC1 inhibitory activity IC50
T1 construct: made in house

EGFR/HER1 = molecular target: T2, EGFR/HER1 (Homo sapiens, UniProt P00533); assay: Biochemical flash-plate based kinase assay, EGFR/HER1; details: only a range over the listed compounds is given; read-out: EGFR/HER1 inhibition IC50
T2 construct: EGFR/HER1 C-terminal kinase domain; made in house
Source text: (§1) Active kinase proteins were either obtained from commercial suppliers (Abl, PDGF-Rβ ProQinase, Freiburg/Germany; AblT^315I: Millipore/Upstate, Billerica/USA; PKA: InvitroGen/Panvera, Carlsbad/USA) or prepared in-house (KDR, c-terminal kinase domain AA790-1356, HER2 c-terminal kinase domain, EGFR/HER1 C-terminal kinase domain). As substrates, poly-AGKY for Abl, AblT^315I and PDGF-Rβ (#P-1152 Sigma, Munich/Germany), poly-GluTyr for KDR, HER2 and EGFR/HER1 (#P-0275, Sigma, Munich/Germany) or a PKA substrate peptide for PKA (#12-394, Millipore/Upstate, Billerica/USA) were used. Into each well of a 96-well flashplate (#SMP-200 in the case of Abl, Abl T^315I, PDGF-Rβ, EGFR, HER2 and KDR, #SMP-103 in the case of PKA; Perkin Elmer, Waltham/USA) kinase protein was diluted into kinase assay buffer (50 mM HEPES pH 7.5, 3 mM MgCl2, 3 mM MnCl2, 1 mM DTT, 3 μM sodium orthovanadate, 5 μg/ml PEG 8000) containing the appropriate substrate (final volume 89 μl). DMSO vehicle or compounds are added as 1 μl/well prior to the initiation of the kinase reaction by 10 μl 1 mM [^33P]-γATP (4×10^5 cpm). Reactions were allowed to proceed for a time predetermined to be linear on a time versus phosphorylation plot (30 min for PKA, otherwise 80 min) and terminated with the addition of an equal volume of phosphoric acid (2% H3PO4 for 5 minutes). Plates were washed three times with 0.9% w/v NaCl and quantitated by liquid scintillation counting.

[2] = test system: histone H3 hyperacetylation in HeLa cervical carcinoma cells; assay: Cellular histone H3 hyperacetylation assay; assay type: cell-based; details: Homo sapiens, 24 h, only a range over the listed compounds is given, read-out: Induction of histone H3 hyperacetylation in HeLa cervical carcinoma cells EC50
Source text: To assess the cellular efficacy of a histone deacetylase inhibitor in vitro, an assay was set up in black clear-bottom 96-well plates and optimized for use on the Cellomics “ArrayScan II” platform for a quantitative calculation of histone acetylation. The protocol uses a polyclonal rabbit antibody, specifically binding to acetylated lysine 1-20 of human histone H3 on fixed cells with an Alexa Fluor 488 labeled goat anti rabbit-IgG used for counterstaining (Beckers et al. Int J. Cancer 121, 1138, 2007).
5×10^3 HeLa cervical carcinoma cells/well (ATCC. CCL-2) in 200 μl Dulbecco rs modified Eagle's medium (DMEM) containing 10% fetal calf serum are seeded at day 1 in Packard view plates and incubated for 24 h under standard cell culture conditions. On day 2, 1 μl test compound (200× final concentration) is added and incubation continued for further 24 h. On day 3, the culture medium is discarded and attached cells fixed for 15 min at room temperature by addition of 100 μl fixation buffer (3.7% v:v formaldehyde in phosphate buffered saline/PBS). After discarding the fixation buffer and one wash with blocking solution (1% BSA, 0.3% Tween 20 in PBS), cells are permeabilized at room temperature by addition of 100 μl/well permeabilization buffer (30.8 mM NaCl, 0.54 mM Na2HPO4, 0.31 mM KH2PO4, 0.1% v:v Triton X-100) for 15 min at room temperature. After discarding the permeabilization buffer and washing twice with 100 μl/well blocking solution at room temperature, the 1st antibody (anti-K^1-20 histone H3 antibody, Calbiochem No. 382158) in blocking solution (50 μl/well) is added. After incubation for 1 h at room temperature, the wells are washed twice at room temperature with 100 μl/well blocking solution before addition of the 2nd antibody (goat-anti-rabbit Alexa Fluor 488; MoBiTec No. A-11008) in blocking solution (50 μl/well). After further incubation for 1 h at room temperature, wells are washed twice with 100 μl/well blocking solution at room temperature. Finally, 100 μl/well PBS are added and image analysis performed on the Cellomics “ArrayScan II” platform. For EC50 determination, the percentage of positive cells showing nuclear fluorescence is determined and EC50 calculation done from concentration-effect curves by means of non-linear regression. For calibration, a positive (reference HDAC inhibitors like SAHA or NVP LBH-589) and a negative control were included.

A549 NSCLC cell line = assay: Cellular cytotoxicity assay (Alamar Blue), A549; assay type: cell-based; details: Homo sapiens
Description: (§2) The anti-proliferative activity of the chimeric HDAC and protein kinase inhibitory chimeric compounds of the present invention was evaluated using HeLa cervical carcinoma, A549 NSCLC, SKOV3 ovarian carcinoma, Cal27 head and neck cancer, K562 chronic myeloid leukemia (CML) and EOL1 acute hypereosinophilic myeloid leukemia, cell lines. For quantification of cellular proliferation/living cells the Alamar Blue (Resazurin) cell viability assay was applied (O'Brien et al. Eur Biochem. 267, 5421-5426, 2000). In this assay Resazurin is reduced to the fluorescent resorufin by cellular dehydrogenase activity, correlating with viable, proliferating cells. The examples were dissolved as 20 mM solutions in dimethylsulfoxide (DMSO) and subsequently diluted in semi-logarithmic steps. Cell lines were seeded at respective density into 96 well flat bottom plates in a volume of 200 μl per well. 24 h after seeding 1 μl each of the compound dilutions were added into each well of the 96 well plate. Each compound dilution was tested as quadruplicates. Wells containing untreated control cells were filled with […] DMEM medium containing 0.5% v:v DMSO. The cells were then incubated with the substances for 72 h at 37° C. in a humidified atmosphere containing 5% carbon dioxide. To determine the viability of the cells, 20 μl of an Resazurin solution (Sigma; 90 mg/l) were added. After 4 h incubation at 37° C. the fluorescence was measured at an extinction of 544 nm and an emission of 590 nm. For the calculation of the cell viability the emission value from untreated cells was set as 100% viability and the emission rates of treated cells were set in relation to the values of untreated cells. Viabilities were expressed as % values. The corresponding IC50 values of the compounds for cytotoxic activity are determined from the concentration-effect curves by means of non-linear regression.

HER2 = molecular target: T3, HER2 (Homo sapiens, UniProt P04626); assay: Biochemical flash-plate based kinase assay, HER2; details: only a range over the listed compounds is given; read-out: HER2 inhibition IC50
T3 construct: HER2 c-terminal kinase domain; made in house
Source text: as §1, with “Reactions were allowed to proceed for a time predetermined to be linear on a time versus phosphorylation plot (30 min for PKA, otherwise 80 min) and terminated with the addition of an equal volume of phosphoric acid (2% H3PO4 for 5 minutes).” left out

Protein kinase A (PKA) = molecular target: T4, Protein kinase A (PKA) (Homo sapiens, UniProt P17612); assay: Biochemical flash-plate based kinase assay, PKA
T4 construct: purchased InvitroGen/Panvera, Carlsbad/USA
Source text: as §1

[3] = test system: HeLa cervical carcinoma cell line; assay: Cellular cytotoxicity assay (Alamar Blue), HeLa; assay type: cell-based; details: Homo sapiens, 72 h
Description: as §2

Bcr-abl (wt) = molecular target: T5, Bcr-abl (wt) (Homo sapiens, UniProt P00519); assay: Biochemical flash-plate based kinase assay, Bcr-abl (wt); details: only a range over the listed compounds is given; read-out: Bcr-abl (wt) inhibition IC50
T5 construct: purchased ProQinase, Freiburg/Germany
T5 sequence (P00519 118-553 limits assumed): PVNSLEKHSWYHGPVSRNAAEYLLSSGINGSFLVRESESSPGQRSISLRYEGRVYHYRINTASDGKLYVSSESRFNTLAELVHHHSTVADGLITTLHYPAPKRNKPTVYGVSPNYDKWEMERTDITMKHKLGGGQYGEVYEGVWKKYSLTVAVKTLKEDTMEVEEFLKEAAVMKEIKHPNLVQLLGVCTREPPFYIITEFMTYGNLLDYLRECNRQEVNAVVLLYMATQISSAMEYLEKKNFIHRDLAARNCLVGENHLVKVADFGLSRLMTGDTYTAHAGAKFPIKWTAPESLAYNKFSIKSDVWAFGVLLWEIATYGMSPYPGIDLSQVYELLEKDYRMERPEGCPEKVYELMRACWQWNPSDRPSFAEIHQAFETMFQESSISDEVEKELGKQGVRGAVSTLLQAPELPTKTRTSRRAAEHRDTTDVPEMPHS
Source text: as §1

Bcr-abl T^315I = molecular target: T6, Bcr-abl T^315I (Homo sapiens, UniProt P00519, T315I); assay: Biochemical flash-plate based kinase assay, Bcr-abl T315I; details: only a range over the listed compounds is given; read-out: Bcr-abl T^315I inhibition IC50
T6 construct: purchased Millipore/Upstate, Billerica/USA
Source text: as §1

PDGFRβ = molecular target: T7, PDGFRβ (Homo sapiens, UniProt P09619); assay: Biochemical flash-plate based kinase assay, PDGFRβ; details: only a range over the listed compounds is given; read-out: PDGFRβ inhibition IC50
T7 construct: purchased ProQinase, Freiburg/Germany
Source text: as §1

[4] = test system: K562 chronic myeloid leukemia (CML) cell line; assay: Cellular cytotoxicity assay (Alamar Blue), K562; assay type: cell-based; details: Homo sapiens, 72 h, only a range over the listed compounds is given, read-out: Cytotoxicity towards K562 CML cell line IC50
Description: as §2

[5] = test system: EOL1 acute hypereosinophilic myeloid leukemia cell line; assay: Cellular cytotoxicity assay (Alamar Blue), EOL1; assay type: cell-based; details: Homo sapiens, 72 h, only a range over the listed compounds is given, read-out: Cytotoxicity towards EOL1 cell line IC50
Description: as §2

[6] = test system: Cal27 head and neck cancer cell line; assay: Cellular cytotoxicity assay (Alamar Blue), Cal27; assay type: cell-based; details: Homo sapiens, CAL-27; 72 h; only a range over the listed compounds is given; read-out: Cytotoxicity towards Cal27 cell line IC50
Description: as §2

[7] = test system: SKOV3 ovarian carcinoma cell line; assay: Cellular cytotoxicity assay (Alamar Blue), SKOV3; assay type: cell-based; details: Homo sapiens, SK-OV-3; 72 h; only a range over the listed compounds is given; read-out: Cytotoxicity towards SKOV3 cell line IC50
Description: as §2

T2 sequence (P00533 712-979 limits assumed): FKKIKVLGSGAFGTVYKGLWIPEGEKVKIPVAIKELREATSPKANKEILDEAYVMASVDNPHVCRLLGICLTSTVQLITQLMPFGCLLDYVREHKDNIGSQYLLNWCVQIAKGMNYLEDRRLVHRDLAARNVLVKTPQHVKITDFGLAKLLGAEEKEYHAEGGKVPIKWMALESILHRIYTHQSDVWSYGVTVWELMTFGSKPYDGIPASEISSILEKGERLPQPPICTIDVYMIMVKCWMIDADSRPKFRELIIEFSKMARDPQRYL
T1 sequence (Q13547 whole entry): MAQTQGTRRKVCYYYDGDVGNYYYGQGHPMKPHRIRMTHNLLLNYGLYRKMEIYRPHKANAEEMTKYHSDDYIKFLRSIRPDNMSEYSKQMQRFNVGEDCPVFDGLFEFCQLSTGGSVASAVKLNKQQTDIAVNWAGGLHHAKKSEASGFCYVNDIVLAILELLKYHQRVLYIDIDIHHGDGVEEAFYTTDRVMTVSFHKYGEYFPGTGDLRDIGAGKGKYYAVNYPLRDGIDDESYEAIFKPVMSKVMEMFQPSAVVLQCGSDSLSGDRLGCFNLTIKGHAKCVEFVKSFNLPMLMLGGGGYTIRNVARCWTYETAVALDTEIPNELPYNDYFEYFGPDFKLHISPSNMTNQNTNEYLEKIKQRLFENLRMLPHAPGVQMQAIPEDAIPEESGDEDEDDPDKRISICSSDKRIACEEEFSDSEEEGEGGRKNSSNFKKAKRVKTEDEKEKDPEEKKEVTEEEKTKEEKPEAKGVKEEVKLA
T3 sequence (P04626 720-987 limits assumed): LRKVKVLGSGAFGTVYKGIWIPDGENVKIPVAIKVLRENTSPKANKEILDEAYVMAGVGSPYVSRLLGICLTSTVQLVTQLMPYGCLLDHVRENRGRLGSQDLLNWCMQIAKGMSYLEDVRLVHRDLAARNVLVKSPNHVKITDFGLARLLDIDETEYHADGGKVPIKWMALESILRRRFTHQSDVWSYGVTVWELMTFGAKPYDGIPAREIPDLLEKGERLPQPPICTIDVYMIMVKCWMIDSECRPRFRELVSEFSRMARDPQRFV
T7 sequence (P09619 33-1106): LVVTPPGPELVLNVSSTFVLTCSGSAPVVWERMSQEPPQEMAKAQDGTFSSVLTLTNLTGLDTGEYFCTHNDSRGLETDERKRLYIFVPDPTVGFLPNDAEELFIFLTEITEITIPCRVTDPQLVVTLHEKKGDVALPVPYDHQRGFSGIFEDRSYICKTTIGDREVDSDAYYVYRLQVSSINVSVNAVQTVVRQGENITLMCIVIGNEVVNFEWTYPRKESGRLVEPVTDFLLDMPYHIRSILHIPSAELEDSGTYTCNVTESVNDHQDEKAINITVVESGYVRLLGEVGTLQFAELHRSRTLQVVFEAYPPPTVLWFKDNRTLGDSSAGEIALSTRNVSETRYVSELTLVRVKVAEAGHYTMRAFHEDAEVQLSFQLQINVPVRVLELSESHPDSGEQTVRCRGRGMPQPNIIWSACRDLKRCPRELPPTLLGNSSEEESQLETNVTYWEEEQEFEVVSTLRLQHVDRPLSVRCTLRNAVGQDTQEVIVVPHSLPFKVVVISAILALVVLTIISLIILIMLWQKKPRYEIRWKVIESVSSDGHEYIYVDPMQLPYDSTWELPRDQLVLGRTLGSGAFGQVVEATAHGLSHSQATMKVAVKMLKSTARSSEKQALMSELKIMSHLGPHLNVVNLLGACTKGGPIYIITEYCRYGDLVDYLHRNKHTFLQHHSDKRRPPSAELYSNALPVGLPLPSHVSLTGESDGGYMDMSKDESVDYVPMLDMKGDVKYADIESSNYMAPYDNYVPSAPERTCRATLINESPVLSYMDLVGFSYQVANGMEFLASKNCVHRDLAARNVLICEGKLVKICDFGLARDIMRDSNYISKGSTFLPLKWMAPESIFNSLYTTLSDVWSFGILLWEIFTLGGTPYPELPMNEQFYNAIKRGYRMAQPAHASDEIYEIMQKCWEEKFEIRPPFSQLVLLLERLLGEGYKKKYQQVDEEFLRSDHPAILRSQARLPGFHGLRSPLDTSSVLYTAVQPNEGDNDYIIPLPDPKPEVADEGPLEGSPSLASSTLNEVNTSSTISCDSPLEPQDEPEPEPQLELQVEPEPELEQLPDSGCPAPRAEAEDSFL

SMILES: O=C(/C=C/c1ccc(-c2ccc3ncnc(Nc4ccc(OCc5cccc(F)c5)c(Cl)c4)c3c2)o1)NO [[2], E-3-(5-{4-[3-Chloro-4-(3-fluorobenzyloxy)-phenylamino]quinazolin-6-yl}furan-2-yl)-N-hydroxy-acrylamide hydrochloride monohydrate]
IC50 [1]: ≥ 35.3 nM | IC50 (EGFR/HER1): 2.2 to 150 nM | EC50 [2]: ≥ 3650 nM | IC50 (A549 NSCLC cell line; A549, 72 h, read-out: Cytotoxicity towards A549 NSCLC cell line IC50 (M)): ≥ 1.1e-06 M

SMILES: O=C(NO)c1ccc(-c2ccc3ncnc(Nc4ccc(OCc5cccc(F)c5)c(Cl)c4)c3c2)s1 [[4], 5-{4-[3-Chloro-4-(3-fluorobenzyloxy)phenyl-amino]quinazolin-6-yl}thiophene-2-carboxylic acid hydroxyamide hydrochloride dihydrate]
IC50 (EGFR/HER1): 2.2 to 150 nM | EC50 [2]: ≥ 3650 nM

SMILES: O=C(NO)c1ccc(-c2ccc3ncnc(Nc4ccc(OCc5cccc(F)c5)c(Cl)c4)c3c2)o1 [[6], 5-{4-[3-Chloro-4-(3-fluorobenzyloxy)phenylamino]-quinazolin-6-yl}furan-2-carboxylic acid hydroxyamide hydrochloride monohydrate]
IC50 [1]: ≥ 35.3 nM | IC50 (HER2): 2 to 740 nM | IC50 (Protein kinase A (PKA)): 85000 nM | EC50 [2]: ≥ 3650 nM | IC50 ([3]; read-out: Cytotoxicity towards HeLa cervical cell line IC50 (M)): 9.1e-07 to 9.4e-06 M

SMILES: O=C(/C=C/c1ccc(-c2ccc3ncnc(Nc4ccc(OCc5cccc(F)c5)c(Cl)c4)c3c2)s1)NO [[7], E-3-(5-{4-[3-Chloro-4-(3-fluorobenzyloxy)-phenylamino]quinazolin-6-yl}thiophene-2-yl)-N-hydroxy-acrylamide hydrochloride monohydrate]
IC50 (Protein kinase A (PKA)): 35000 nM

The next lines start with results.

IC50 (Bcr-abl (wt)): 2000 to 39000 nM | IC50 (Bcr-abl T^315I): 1000 to 34000 nM | IC50 (PDGFRβ): 2100 to 71000 nM
SMILES: Cc1ccc(NCc2ccc(C(=O)Nc3ccccc3N)cc2)cc1Nc1nccc(-c2cccnc2)n1 [[15], N-(2-Amino-phenyl)-4-{[4-methyl-3-(4-pyridin-3-yl-pyrimidin-2-ylamino)-phenylamino]-methyl}-benzamide]
IC50 (A549 NSCLC cell line; A549, 72 h, only a range over the listed compounds is given, read-out: Cytotoxicity towards A549 NSCLC cell line IC50): ≥ 2.95e-06 M | IC50 ([3]; only a range over the listed compounds is given, read-out: Cytotoxicity towards HeLa cervical cell line IC50): ≥ 1.15e-06 M | IC50 [4]: 490 to 4070 nM

IC50 [1]: 77 to 1400 nM | IC50 (Bcr-abl (wt)): 2000 to 39000 nM | IC50 (Bcr-abl T^315I): 1000 to 34000 nM | IC50 (PDGFRβ): 2100 to 71000 nM
SMILES: Cc1ccc(NC(=O)c2ccc(/C=C/C(=O)NO)cc2)cc1Nc1nc(-c2cccnc2)cs1 [[19], (E)-4-(3-(hydroxyamino)-3-oxoprop-1-enyl)-N-(4-methyl-3-(4-(pyridin-3-yl)thiazol-2-ylamino)phenyl)benzamide]
IC50 [5]: 3 to 780 nM

IC50 (Bcr-abl T^315I): 1000 to 34000 nM | IC50 (Protein kinase A (PKA)): 38000 nM | melting point: 204.6 °C (dec.)
SMILES: CN(C(=O)c1ccc(C(=O)Nc2ccccc2N)cc1)c1cccc(Nc2nccc(-c3cccnc3)n2)c1 [[30], N-(2-Amino-phenyl)-N′-methyl-N′-[3-(4-pyridin-3-yl-pyrimidin-2-ylamino)-phenyl]-terephthalamide]

IC50 (EGFR/HER1): 2.2 to 150 nM | melting point: 213 to 216 °C
SMILES: C#Cc1cccc(Nc2ncnc3ccc(NC(=O)c4ccc(C(=O)Nc5ccccc5N)nc4)cc23)c1 [[36], N^2-(2-aminophenyl)-N^5-(4-(3-ethynylphenylamino)-quinazolin-6-yl)pyridine-2,5-dicarboxamide]
IC50 [6]: 160 to 8000 nM

IC50 (HER2): 2 to 740 nM
SMILES: C#Cc1cccc(Nc2ncnc3cc(NC(=O)c4ccc(C(=O)Nc5ccccc5N)nc4)ccc23)c1 [[39], Pyridine-2,5-dicarboxylic acid 2-[(2-amino-phenyl)-amide]-5-{[4-(3-ethynyl-phenylamino)-quinazolin-7-yl]-amide}]
IC50 [7]: ≥ 560 nM
